Source: patent publication US12012467B2, “Small molecule DCN1 inhibitors and therapeutic methods using the same” (THE REGENTS OF THE UNIVERSITY OF MICHIGAN, priority 2017, dated 2024)
Read-outs that look alike come from different tables or passages of the source. Square brackets hold non-standard residues; d marks the D form. Peptide text beside a SMILES is read from it. * marks the point of attachment. Ala(6-iPr-benzothiazol-2-yl) = CC(C)c1ccc2nc(C[C@H](N)C(=O)O)sc2c1; 2Nal = N[C@@H](Cc1ccc2ccccc2c1)C(=O)O; Cyclopropanecarbonyl = O=C(C1CC1)*; For = O=C*

Biological target: DCN1 (Homo sapiens (Human), UniProt Q96GG9)
Assay: Competitive FP binding assay
Description: Competitive FP Binding Assay
The Fluorescence Polarization (FP) competitive binding assays were performed to accurately determine the binding affinities of our DCN1 inhibitors. […] Serial dilutions of proteins were mixed with 46 to a final volume of 200 μl in the assay buffer (100 mM phosphate buffer, pH=6.5, with 0.02% Tween-20 and 2% DMSO). Final probe concentration was 5 nM for both assays. Plates were incubated at room temperature for 30 minutes with gentle shaking to assure equilibrium.
Pure proteins were derived from the same expression and purification protocols. Plasmids were transformed into Rosetta2 cells, the cells were grown in Terrific Broth at 37° C. to an O.D.600>1.0 and induced with 0.4 mM Isopropyl (3-D-1-thiogalactopyranoside overnight at 20° C. The pelleted cells were resuspended in lysis buffer containing 25 mM Tris-HCl, pH 7.5, 200 mM NaCl and protease inhibitors, sonicated and centrifuged at 34,000×g for 45 minutes to remove debris. Cleared lysate was incubated with Ni-NTA resin (Qiagen) prewashed with lysis buffer, for 1 hr at 4° C. The matrix was loaded into a column then washed with 25 mM Tris-HCl, pH 7.5, 200 mM NaCl and 10 mM imidazole. Protein was eluted with 25 mM Tris-HCl, pH 7.5, 200 mM NaCl and 300 mM imidazole, concentrated and applied to a Superdex 75 (GE Healthcare) column pre-equilibrated with 25 mM Tris pH 7.5, 200 mM NaCl and 1 mM DTT. For DCN2-5, the N-terminal His6 tag was removed prior to gel filtration. Tag removal was achieved through incubation with TEV protease during overnight dialysis against 25 mM Tris pH 7.5, 200 mM NaCl and 1 mM DTT and a second Ni-NTA column. DCN2-5 proteins were stored at −80° C. in 1 mg/mL fractions containing 5% glycerol. The uncleaved DCN1 protein was stored at −80° C. without glycerol.

[1] = read-out: Binding affinity to DCN1 (IC50 (nM))
[2] = bounds given in μM, read-out: Binding affinity to DCN1 (IC50)

Chain of DCN1 (Q96GG9 58-259): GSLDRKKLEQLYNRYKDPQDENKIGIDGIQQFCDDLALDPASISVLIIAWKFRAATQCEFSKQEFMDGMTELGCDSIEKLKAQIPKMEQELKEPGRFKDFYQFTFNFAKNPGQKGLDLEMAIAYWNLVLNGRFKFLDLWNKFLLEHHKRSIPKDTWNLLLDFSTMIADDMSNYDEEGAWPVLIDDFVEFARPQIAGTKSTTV

Row | IC50 [1] [nM] | IC50 [2] [nM] | Structure (SMILES)
1 |  | > 10000 | CC(C)CC(C)C(=O)N[C@@H](Cc1nc2ccc(C(C)C)cc2s1)C(=O)NCCN (stereo partly drawn) [97 & 98]
2 | 1040 ± 128 |  | CC[C@H](C)[C@H](NC(=O)[C@H](Cc1nc2ccc(C(C)C)cc2s1)NC(C)=O)C(N)=O [Example 7, (2S,3S)-2-((S)-2-acetamido-3-(6-isopropylbenzo[d]thiazol-2-yl)propanamido)-3-methylpentanamide]
3 |  | > 10000 | CCC(=O)N[C@@H](Cc1nc(C)c(C(C)C)s1)C(=O)N[C@H](CN)Cc1ccccc1 [Example 99]
4 |  | > 10000 | CCC(=O)N[C@H](Cc1nc2ccc(Cl)cc2s1)C(=O)N[C@H](C(=O)N[C@@H](CCCCN)C(=O)N[C@@H]1CCOc2ccccc21)C1CCOCC1 [Example 199]
5 |  | > 3000 | CCC(=O)N[C@@H](Cc1ccc2ccccc2c1)C(=O)N[C@H](C(=O)N[C@@H](CCCCN)C(=O)NC1CCCCC1)[C@@H](C)CC [Example 8]
6 | 572 |  | CCC(=O)N[C@@H](Cc1nc2cc(Cl)ccc2s1)C(=O)N[C@H](C(=O)N[C@@H](CCCCN)C(=O)NC(c1ccccc1)c1ccccc1)C1CCCC1 [Example 29]
7 | 65.7 |  | CCC(=O)N[C@@H](Cc1nc2ccc(C(C)C)cc2s1)C(=O)N[C@H](CNS(=O)(=O)C1CCN(C)CC1)C1CCCCC1 [Example 76]
8 |  | > 10000 | CCC(=O)N[C@@H](Cc1ccc(C)cn1)C(=O)N[C@H](C(=O)N[C@@H](CCCCN)C(=O)NC(c1ccccc1)c1ccccc1)[C@@H](C)CC [Example 135]
9 |  | > 10000 | CCC(=O)N[C@@H](Cc1nc(C)c(-c2cccc(C#N)c2)s1)C(=O)N[C@H](CN)Cc1ccccc1 [Example 231]
10 | 187 |  | CCC(=O)N[C@@H](Cc1nc2ccc(C)cc2s1)C(=O)N[C@H](C(=O)N[C@@H](CC1CCNCC1)C(=O)N[C@@H]1CCOc2ccccc21)C1CCOCC1 [Example 191]
11 |  | > 10000 | CCC(=O)N[C@H](Cc1nc2ccc(Cl)cc2s1)C(=O)N[C@@H](C[C@H]1CC[C@H](CN)CC1)C(=O)N[C@@H](CCCCN)C(=O)N[C@@H]1CCOc2ccccc21 [Example 201]
12 | 944 ± 176 |  | CCCC(=O)N[C@@H](Cc1nc2ccc(C(C)C)cc2s1)C(=O)N[C@H](CN)[C@@H](C)CC [Example 51, N—((S)-1-(((2S,3 S)-1-amino-3-methylpentan-2-yl)amino)-3-(6-isopropylbenzo[d]thiazol-2-yl)-1-oxopropan-2-yl)butyramide]
13 | 230 |  | CCC(=O)N[C@@H](Cc1nc2ccc(C)cc2s1)C(=O)N[C@H](C(=O)N[C@@H](C[C@H]1CC[C@H](CN)CC1)C(=O)N[C@@H]1CCOc2ccccc21)C1CCOCC1 [Example 189]
14 |  | > 10000 | COCCC(=O)N[C@@H](Cc1nc2ccc(Cl)cc2s1)C(=O)NCCN [Example 236]
15 | 171 |  | CCC(=O)N[C@@H](Cc1nc2ccc(CC)cc2s1)C(=O)N[C@H](C(=O)N[C@@H](CC1CCNCC1)C(=O)N[C@@H]1CCOc2ccccc21)C1CCOCC1 [Example 192]
16 | 265 |  | CCC(=O)N[C@@H](Cc1nc2ccc(OC)cc2o1)C(=O)N[C@H](C(=O)N[C@@H](CCCCN)C(=O)NC(c1ccccc1)c1ccccc1)[C@@H](C)CC [Example 157]
17 |  | > 5000 | CCC(=O)N[C@@H](Cc1nc2ccc(Cl)cc2s1)C(=O)NCc1ccccn1 [Example 251]
18 | 189 |  | CCC(=O)N[C@@H](Cc1nc2ccc(Cl)cc2s1)C(=O)N[C@@H](C[C@H]1CC[C@H](CNC(=O)COCCOCCOCCNC(=O)CCCC[C@@H]2SC[C@@H]3NC(=O)N[C@@H]32)CC1)C(=O)N[C@@H](CCCCN(C)C)C(=O)N[C@@H]1CCOc2ccccc21 [DI-427biotin]
19 | 611 ± 193 |  | CCC(=O)N[C@@H](Cc1ccc2ccccc2c1)C(=O)N[C@H](C(=O)N[C@@H](CCCCN)C(=O)NC(c1ccccc1)c1ccccc1)[C@@H](C)CC [Example 12]
20 |  | > 10000 | CCC(=O)N[C@@H](Cc1nc2ccc(Cl)cc2s1)C(=O)NCCN [Example 235]
21 |  | > 10000 | CCC(=O)N[C@@H](Cc1ccc2ccccc2c1)C(=O)N[C@H](C(=O)N[C@@H](CCCCN)C(=O)N[C@@H](CN)c1ccccc1)C1CCCC1 [Example 151]
22 | 55.6 |  | CCC(=O)N[C@@H](Cc1cn2cc(Cl)ccc2n1)C(=O)N[C@H](C(=O)N[C@@H](CCCCN)C(=O)N[C@@H]1CCOc2ccccc21)C1CCCC1 [Example 212]

Second part, the molecule before the results:

Row | Structure (SMILES) | IC50 [1] [nM] | IC50 [2] [nM]
23 | CCC(=O)N[C@@H](Cc1nc2ccc(C(C)C)cc2s1)C(=O)N[C@H](CNC(=O)c1nnc[nH]1)C1CCCCC1 [Example 65] | 119 | 
24 | CC[C@H](C)[C@H](NC(=O)[C@H](Cc1nc2ccc(C(C)C)cc2s1)NC(C)=O)C(=O)N[C@@H](CCCCN)C(=O)N[C@@H](CC(C)C)C(N)=O [Example 5, (S)-2-((2S,3 S)-2-((S)-2-acetamido-3-(6-isopropylbenzo[d]thiazol-2-yl)propanamido)-3-methylpentanamido)-6-amino-N—((S)-1-amino-4-methyl-1-oxopentan-2-yl)hexanamide] (Ac-[Ala(6-iPr-benzothiazol-2-yl)]IKL-NH2) | 40.1 | 
25 | CCC(=O)N[C@@H](Cc1nc2ccc(Cl)cc2s1)C(=O)N[C@H](C(=O)N[C@@H](CC1CCNCC1)C(=O)N[C@@H]1CCOc2ccccc21)C1CCOCC1 [Example 41] | 222 | 
26 | CC[C@H](C)[C@H](NC(=O)[C@H](Cc1ccc2ccccc2c1)NC=O)C(=O)N[C@@H](CCCCN)C(=O)N[C@@H](CC(C)C)C(N)=O [Example 143] (For-[2Nal]IKL-NH2) |  | > 10000
27 | CCC(=O)N[C@@H](Cc1ccc2ccccc2c1)C(=O)N[C@H](C(=O)N[C@@H](CCCCN)C(=O)N[C@@H]1CCOc2ccc(Cl)cc21)C1CCCC1 [Example 164] | 394 | 
28 | CCC(=O)N[C@@H](Cc1ccc2ccccc2c1)C(=O)N[C@H](C(=O)N[C@@H](CCCCN)C(=O)N[C@@H](c1ccccc1)c1cn(CCN)nn1)C1CCCC1 [Example 161] | 943 | 
29 | CCC(=O)N[C@@H](Cc1nc2ccc(C(C)C)cc2s1)C(=O)N[C@H](C(=O)NCCN1CCOCC1)C1CCNCC1 [Example 265] |  | > 10000
30 | CCC(=O)N[C@@H](Cc1ccc2ccccc2c1)C(=O)N[C@H](C(=O)N[C@@H](CCCCN1CCOCC1)C(=O)NC(c1ccc(F)cc1)c1ccc(F)cc1)C1CCCC1 [Example 141] | 871 | 
31 | CCC(=O)N[C@@H](Cc1nc2ccc(Cl)cc2s1)C(=O)N[C@H](CN)Cc1ccccc1 (stereo in doubt) [Example 87] |  | > 10000
32 | CCC(=O)N[C@H](CNC(=O)C1(N)CCCCC1)Cc1nc2ccc(C(C)C)cc2s1 [Example 110] | 1900 | 
33 | CCC(=O)N[C@@H](Cc1nc2ccc(C(C)C)cc2s1)C(=O)N[C@@H](CN)Cc1ccccc1 (stereo in doubt) [Example 91] |  | > 10000
34 | CCC(=O)N[C@@H](Cc1ccc2ccccc2c1)C(=O)N[C@H](C(=O)N[C@@H](CCCCN)C(=O)N[C@H]1CCCc2ccccc21)[C@@H](C)CC [Example 16] | 795 | 
35 | CCC(=O)N[C@@H](Cc1nc2ccc(Cl)cc2s1)C(=O)N[C@@H](C[C@H]1CC[C@H](CN)CC1)C(=O)N[C@@H](CCCCN(C)C)C(=O)N[C@@H]1CCOc2ccccc21 [Example 45] | 116 | 
36 | CCC(=O)N[C@@H](Cc1nc2ccc(Cl)cc2s1)C(=O)N[C@H](C(=O)N[C@@H](CCCCN)C(=O)N[C@@H]1CNCc2ccccc21)C1CCCC1 [Example 39] | 173 | 
37 | CCC(=O)N[C@@H](Cc1nc2ccc(Cl)cc2s1)C(=O)N[C@H](C(=O)N[C@@H](CCCCN)C(=O)N[C@@H]1CCOc2ccccc21)C1CCCC1 [Example 33] | 103 | 
38 | CCC(=O)N[C@@H](Cc1nc2ccc(C(C)C)cc2s1)C(=O)N[C@H](C(=O)NCCN1CCOCC1)C1CCN(C(=O)OC(C)(C)C)CC1 [Example 264] | 1500 | 
39 | CCC(=O)N[C@@H](Cc1nc2ccc(C(C)C)cc2s1)C(=O)N[C@H](CN)Cc1ccccc1 (stereo in doubt) [Example 89] |  | > 10000
40 | CC[C@H](C)[C@H](NC(=O)[C@H](Cc1nc2ccc(C(C)C)cc2s1)NC(=O)C1CC1)C(=O)N[C@@H](CCCCN)C(=O)N[C@@H](CC(C)C)C(N)=O [Example 274] (Cyclopropanecarbonyl-[Ala(6-iPr-benzothiazol-2-yl)]IKL-NH2) | 82.5 | 
41 | NCCNC(=O)[C@H](Cc1nc2ccc(Cl)cc2s1)NC(=O)CCOCc1ccccc1 [Example 238] |  | > 10000
42 | CCC(=O)N[C@@H](Cc1nc(C)c(-c2cccc(Cl)c2)s1)C(=O)N[C@H](CN)Cc1ccccc1 [Example 103] | 264 | 
43 | CCC(=O)N[C@@H](Cc1nc(C)c(-c2ccc(F)cc2)s1)C(=O)N[C@H](CN)Cc1ccccc1 [Example 100] | 2220 | 
44 | CC[C@H](C)[C@@H](CN)NC(=O)[C@H](Cc1nc2ccc(C(C)C)cc2s1)NC(C)=O [Example 46, (S)-2-acetamido-N-((2S,3S)-1-amino-3-methylpentan-2-yl)-3-(6-isopropylbenzo[d]thiazol-2-yl)propanamide] | 281 ± 29 | 
45 | CCC(=O)N[C@@H](Cc1nc2ccc(C(C)C)cc2s1)C(=O)N[C@H](CN1CCOCC1)C1CCCCC1 [Example 80, (S)—N—((S)-1-cyclohexyl-2-morpholinoethyl)-3-(6-isopropylbenzo[d]thiazol-2-yl)-2-propionamidopropanamide] | 157 | 
